Test results: patent publication EP2576536B1, “HAEMATOPOIETIC-PROSTAGLANDIN D2 SYNTHASE INHIBITORS” (priority 2010, dated 2011)

Assays:
[1] = biological target: T1, H-PGDS (Homo sapiens, UniProt O60760); assay: H-PGDS catalyzed conjugation of GSH and CDNB, enzyme inhibition assay; type: biochemical; conditions: for I[50] / inhibition at 50 µM: percent inhibition at 50 µM, Mean ± Standard Error of triplicate experiments; for IC50: IC50 ± Standard Error of the Mean, triplicate experiments; for inhibition at 50 µM: read-out: I[50]
T1 construct: made in house; host or cells: Escherichia coli BL21 DE3
T1 sequence (O60760 whole entry): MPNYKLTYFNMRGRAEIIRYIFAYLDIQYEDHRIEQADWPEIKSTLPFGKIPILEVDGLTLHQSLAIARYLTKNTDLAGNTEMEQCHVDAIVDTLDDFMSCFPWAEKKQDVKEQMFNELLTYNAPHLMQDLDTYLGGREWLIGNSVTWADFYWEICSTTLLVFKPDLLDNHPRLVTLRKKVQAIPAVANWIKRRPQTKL
Method: H-PGDS was expressed and purified as described previously (Jowsey, 2001). Briefly, H-PGDS was expressed in Escherichia coli strain BL21 DE3 transformed with the pET17b HPGDS expression construct, grown overnight at 37 °C in 250 ml of Luria-Bertani medium supplemented with 100 µg/ml ampicillin. After 24 h, without induction, bacteria were harvested by centrifugation at 5000 g for 20 min at 4 °C; cell pellets were kept at -70 °C until required. Cells were resuspended in 25 ml of ice-cold phosphate buffered saline (PBS), pH 7.4, containing 1 mM DTT, 0.5 % Triton X-100 and EDTA-free protease inhibitor tablets (F.Hoffmann-La Roche, Dee Why, NSW, Australia), and incubated with rotation for 30 mins at 4 °C. Cells were then lysed by sonication at 90-100 W over 3 x 1 min intervals, while incubated on ice; the lysate clarified by centrifugation at 18000 g for 10 min at 4 °C.
The supernatant was then applied to a GSTPrep FF 16/10 column pre-equilibrated with PBS, pH 7.4, and 1 mM DTT, at 0.4 ml/minute using an AKTA explorer 100 (GE Healthcare, Rydalmere, NSW, Australia), then washed with 5 column volumes of the same buffer at 1 ml/min. Bound H-PGDS was eluted in 5 column volumes of 15 mM reduced glutathione in 50 mM Tris, pH 9.0, at 0.5 ml/min, and dialysed against 100 volumes of 5 mM TrisCl, pH 8.0. The protein was concentrated to 20 mg/ml, as determined by the method of Bradford (Bradford, 1976) using an Amicon Ultra-4 centrifugal filter device (Millipore, North Ryde, NSW, Australia) following manufacturers recommendations. Glycerol was added to a final concentration of 10 % (v/v) prior to storage at -20 °C.
The H-PGDS catalyzed conjugation of GSH and 1-chloro-2,4-dinitrobenzene (CDNB) was used as the biochemical assay for enzyme inhibition. Reactions were performed in 96 well plate format, and product formation was followed at A340 nm over a 10 min internal at 25 °C using a POWERWAVE XS microplate scanning spectrophotometer (Bio-Tek Instruments, Winooski, VT, USA). Reactions were performed in 0.1 M Tris HCl, pH 8.0 containing 2 mM MgCl2, 1 mM CDNB, 2 mM GSH, 2.5 ng/µl purified H-PGDS and 10 % (v/v) ethanol in a 200 µl reaction volume. IC50 values were calculated from rates of conjugation activity determined at eight concentration points bracketing the IC50, where compound solubility allowed, and were corrected for background activity at the same solvent concentrations. All compounds were made up in 100 % DMSO and diluted with 0.1 M Tris HCl, pH 8.0 with 2 mM MgCl2. I50 and IC50 values were determined at a final DMSO composition of no greater than 4 % v/v for all compounds. Non-linear regression analysis and IC50 calculations were performed using GraphPad Prism version 4.0c.
IC50 values were calculated from triplicate experiments, and are presented as IC50 ± Standard Error of the Mean.

[2] = tested on: MEG-01S; assay: MEG-01S cell viability by MTT assay; type: cell-based, human; conditions: 24 h treatment, 0-100 µM (Figure 3B)
Method: (§1) All bone marrow-derived macrophages (BMM) were obtained by culturing bone marrow cells from the femurs of 6 to 8 week old C57BL/6 male mice in RPMI 1640 medium (Invitrogen Life Technologies, Carlsbad, CA, USA) supplemented with 10 % Fetal calf serum (Invitrogen) 20 U/ml penicillin and 20 µg/ml streptomycin (Invitrogen), 2 mM L-glutamine (Glutamax-1, Invitrogen) in the presence of 10^4 U/ml (100 ng/mL) recombinant human CSF-1 (a gift from Chiron, Emeryville, CA) on bacteriological plastic plates for 7 days. The human megakaryocytic cell line MEG-01S was obtained from the American Type Culture Collection. MEG-01S were maintained in the same media as for BMM, supplemented with 1 mM Sodium Pyruvate (Invitrogen).
Known inhibitors 1 and 2, along with compound 3, were used to treat BMM at three doses (10, 30, 100 µM) in the presence of LPS for 24 h and cell viability was measured by MTT assay. BMM were seeded at 1 x 10^5 cells/well in 96 well plates and treated for 24 h with LPS (10 ng/ml) and compounds at 10, 30 and 100 µM. […] Cell viability was measured by MTT (Sigma-Aldrich) assay as described previously (Irvine, FASEB J, 2006).
The effect of the compounds on MEG-01S cell viability was measured by MTT assay after 24 h treatment across the concentration range 0 - 100 µM of compounds (Figure 3B). […]

[3] = tested on: mouse primary bone marrow-derived macrophages (BMM); assay: LPS-inducible PGE2, 6-keto PGF1α and TXB2 production from BMM (EIA), specificity; type: cell-based; conditions: 24 h, 0-100 µM
Method: The human megakaryocytic cell line MEG-01S was obtained from the American Type Culture Collection. MEG-01S were maintained in the same media as for BMM, supplemented with 1 mM Sodium Pyruvate (Invitrogen).
BMM were seeded overnight at 2 x 10^5 cells/ml in 24 well plates before treatment with compound at either 10 µM or 0.1 - 100 µM for 24 h in the presence or absence of lipopolysaccharide (LPS) from Salmonella Minnesota (Sigma-Aldrich) at a final concentration of 10 ng/ml. MEG-01S were seeded at 2 x 10^5 cells/ml and stimulated with PMA (Phorbol 12-myristate 13-acetate) (Sigma-Aldrich) at a final concentration of 0.1 µM for 16 h.

[4] = tested on: BMM; assay: BMM cell viability by MTT assay; type: cell-based, mouse; conditions: 10, 30, 100 µM, LPS, 24 h (Figure 1B)
Method: as §1
Known inhibitors 1 and 2, along with compound 3, were used to treat BMM at three doses (10, 30, 100 µM) in the presence of LPS for 24 h and cell viability was measured by MTT assay. BMM were seeded at 1 x 10^5 cells/well in 96 well plates and treated for 24 h with LPS (10 ng/ml) and compounds at 10, 30 and 100 µM. MEG-01S were PMA differentiated overnight before compounds were added for a further 24 h at 10, 30 and 100 µM. Cell viability was measured by MTT (Sigma-Aldrich) assay as described previously (Irvine, FASEB J, 2006).

[5] = tested on: MEG-01S human megakaryocytes; assay: A23187-inducible PGD2 production in PMA-differentiated MEG-01S (EIA); type: cell-based; conditions: at 100 µM (Figure 3A)
Method: as §1
BMM were seeded overnight at 2 x 10^5 cells/ml in 24 well plates before treatment with compound at either 10 µM or 0.1 - 100 µM for 24 h in the presence or absence of lipopolysaccharide (LPS) from Salmonella Minnesota (Sigma-Aldrich) at a final concentration of 10 ng/ml. […] Supernatants were collected and samples were analysed for PGD2 using Prostaglandin D2 Mox Express EIA kits, PGE2 using Prostaglandin E2 Express EIA kits, the prostacyclin derivative 6-keto PGF1α using the 6-keto Prostaglandin F1α EIA Kit and the Thromboxane A2 derivative TXB2 using the Thromboxane B2 Express EIA kit (Cayman Chemical) according to the manufacturer's instructions. […]

Structure (SMILES)	IC50 [1]	inhibition at 50 µM [1]	further results
Cc1cc(-c2ccc(C(=O)N[C@@H](Cc3ccccc3)C(N)=O)cn2)sc1C#N [Compound 22]			I[50] [1]: 34.6 ± 2.1%
CS(=O)(=O)N1CC2(CCN(C(=O)c3ccc(-c4cccs4)nc3)CC2)c2ccccc21 [Compound 10, (1-(methylsulfonyl)spiro[indoline-3,4'-piperidin]-1'-yl)(6-(thiophen-2-yl)pyridin-3-yl)methanone]	1230 ± 1100 nM	90.4 ± 0.5%	
NC(=O)[C@H](Cc1ccccc1)NC(=O)c1ccc(-c2ccc(C=O)s2)nc1 [Compound 14]	1700 ± 1800 nM	83.4 ± 1.5%	
O=C(c1ccc(-c2cccs2)nc1)N1CCC(n2c(=O)[nH]c3ccccc32)CC1 [Compound 11, 1-(1-(6-(thiophen-2-yl)nicotinoyl)piperidin-4-yl)-1H-benzo[d]imidazol-2(3H)-one]	1220 ± 1400 nM	90.4 ± 0.7%	
CC(=O)c1ccc(-c2ccc(C(=O)N[C@@H](Cc3ccccc3)C(N)=O)cn2)s1 [Compound 18]	5100 ± 1100 nM	65.5 ± 7.7%	
NC(=O)[C@H](Cc1ccccc1)NC(=O)c1ccc(-c2ccc(C(=O)O)s2)nc1 [Compound 15]			I[50] [1]: 19.4 ± 1.4%
Cc1csc(-c2ccc(C(=O)N[C@@H](C)c3ccc4ccccc4c3)cn2)c1 [Compound 25]	180 nM	96.9 ± 1%	
NC(=O)[C@H](Cc1ccccc1)NC(=O)c1ccc(-c2sccc2Cl)nc1 [Compound 19]	3200 ± 1600 nM	94.8 ± 2.4%	
O=C(NCc1ccccc1)c1ccc(-c2cccs2)nc1 [Compound 5, N-benzyl-6-(thiophen-2-yl)nicotinamide]	597 ± 1200 nM	99.5 ± 0.8%	
Cc1ccc(-c2ccc(C(=O)N[C@@H](Cc3ccccc3)C(N)=O)cn2)s1 [Compound 17]	2000 ± 1100 nM	95 ± 1.1%	
O=C(c1ccc(-c2cccs2)nc1)N1CCC2(CCc3ccccc32)CC1 [Compound 7, (2,3-dihydrospiro[indene-1,4'-piperidin]-1'-yl)(6-(thiophen-2-yl)pyridin-3-yl)methanone]	1970 ± 1200 nM	91 ± 0.1%	
CC(NC(=O)C(Cc1ccccc1)NC(=O)c1ccc(-c2cccs2)nc1)C(N)=O (stereo not drawn) [Compound 24]	860 ± 1200 nM	94.6 ± 0.3%	
c1ccc(C(OC2CCN(CCCc3nn[nH]n3)CC2)c2ccccc2)cc1 [Compound 1, reference compound]			MEG-01S cell viability [2]: little effect; differential effect in inhibition of PGD2 versus PGE2, 6-keto PGF1α or TXB2 (selectivity) [3]: no differential effect; BMM cell viability [4]: modest but significant effects; A23187-inducible PGD2 production [5]: very modest activity
O=C(NC(c1ccccc1)c1ccccc1)c1ccc(-c2cccs2)nc1 [Compound 4, N-benzhydryl-6-(thiophen-2-yl)nicotinamide]		28.5%	
C[C@H](NC(=O)c1ccc(-c2cccs2)nc1)c1ccc2ccccc2c1 [Compound 12, (S)-N-(1-(naphthalen-2-yl)ethyl)-6-(thiophen-2-yl)nicotinamide]	86 nM	99.8 ± 0.3%	
Cc1ccsc1-c1ccc(C(=O)N[C@@H](Cc2ccccc2)C(N)=O)cn1 [Compound 23]	1870 ± 1100 nM	91.6 ± 0.8%	
N#Cc1ccc(-c2ccc(C(=O)N[C@@H](Cc3ccccc3)C(N)=O)cn2)s1 [Compound 20]			I[50] [1]: 67.9 ± 1.6%
O=C(c1ccc(-c2cccs2)nc1)N1CCC(N2C(=O)OCc3ccccc32)CC1 [Compound 13, 1-(1-(6-(thiophen-2-yl)nicotinoyl)piperidin-4-yl)-1H-benzo[d][1,3]oxazin-2(4H)-one]	3400 ± 1400 nM		I[50] [1]: 87.9 ± 1.1%
O=C(O)c1ccc(CNC(=O)c2ccc(-c3cccs3)nc2)cc1 [Compound 9, 4-((6-(thiophen-2-yl)nicotinamido)methyl)benzoic acid]	660 ± 1100 nM	98.3 ± 1.1%	
Cc1csc(-c2ccc(C(=O)N[C@@H](Cc3ccccc3)C(N)=O)cn2)c1 [Compound 21]	380 ± 1100 nM	97.4 ± 0.8%	
NC(=O)[C@H](Cc1ccccc1)NC(=O)c1ccc(-c2ccc(Cl)s2)nc1 [Compound 16]	1400 ± 1300 nM	89.4 ± 4.7%	
O=C(c1ccc(-c2cccs2)nc1)N1CCc2ccccc2C1 [Compound 6, (3,4-dihydroisoquinolin-2(1H)-yl)(6-(thiophen-2-yl)pyridin-3-yl)methanone]		72.3 ± 1.5%	
CC(=O)C1(c2ccccc2)CCN(C(=O)c2ccc(-c3cccs3)nc2)CC1 [Compound 8, 1-(4-phenyl-1-(6-(thiophen-2-yl)nicotinoyl)piperidin-4-yl)ethanone]		58.7 ± 0.8%	
